Data on three molecules can be found in patent US6376505B1, “5-HT1A and 5-HT1Dαdalpha antagonists” (Eli Lilly and Company, priority 1997, dated 2002).

Counter-ions that a name gives are not always drawn.

Regarding `CSc1ccccc1OC[C@@H](O)CN1CCC2(CC1)OCc1c2ccc2c1OCCO2` (as salt: oxalate), the melting point was found to be 180 °C.

`O[C@H](COc1ccccc1C1CCCC1)CN1CCC2(CC1)OCc1c2ccc2c1OCCO2` (as salt: oxalate) came in with a melting point of 198 to 200 °C.

The molecule `O[C@H](COc1ccccc1C1CCCC1)CN1CCC2(CC1)OCc1c2ccc2c1OCCCO2` (as salt: oxalate) displayed a melting point of 169 to 171 °C.
